Measured values from ChEMBL document CHEMBL1201862, “PubChem BioAssay data set” (2004).
The source made the active and inactive calls.

Legend:
[1] = molecular target: Potassium voltage-gated channel subfamily KQT member 2 (Rattus norvegicus, UniProt O88943); assay: retigabine-insensitive KCNQ2 potentiators, concentration-response, dose response, cell-based, retigabine-insensitive compounds (AID 2654); type: functional
[2] = molecular target: T1, Rac GTPase-activating protein 1 (Homo sapiens, UniProt Q9H0H5); assay: MgcRacGAP GTPase-activating activity inhibitors, confirmation, biochemical, ADP Hunter fluorescence, primary and confirmatory (AID 624330); type: functional
T1 sequence (Q9H0H5 whole entry): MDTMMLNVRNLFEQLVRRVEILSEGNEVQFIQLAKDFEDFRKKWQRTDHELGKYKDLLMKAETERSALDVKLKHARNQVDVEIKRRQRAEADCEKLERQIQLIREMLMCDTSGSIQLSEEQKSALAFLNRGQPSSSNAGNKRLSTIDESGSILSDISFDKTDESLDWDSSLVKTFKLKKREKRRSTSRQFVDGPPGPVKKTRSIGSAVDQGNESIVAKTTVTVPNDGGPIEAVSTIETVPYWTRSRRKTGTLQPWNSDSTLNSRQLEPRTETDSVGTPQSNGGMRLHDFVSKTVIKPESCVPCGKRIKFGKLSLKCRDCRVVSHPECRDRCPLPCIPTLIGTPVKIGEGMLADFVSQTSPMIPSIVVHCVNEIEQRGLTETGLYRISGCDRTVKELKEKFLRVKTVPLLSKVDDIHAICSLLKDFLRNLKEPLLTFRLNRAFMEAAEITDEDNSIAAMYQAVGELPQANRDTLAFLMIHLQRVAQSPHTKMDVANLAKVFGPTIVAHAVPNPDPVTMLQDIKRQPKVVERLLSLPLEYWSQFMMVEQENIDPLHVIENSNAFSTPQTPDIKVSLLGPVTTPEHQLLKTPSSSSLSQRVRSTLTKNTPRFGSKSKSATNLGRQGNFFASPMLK

Beta-galactosidase = Beta-galactosidase (Escherichia coli, UniProt Q8VNN2); assay: beta-galactosidase enzyme inhibitors and activators, dose response, artefact control for CCR6 antagonist project, biochemical, E. coli enzyme, set 3 (AID 504712); type: functional
Chain of Beta-galactosidase (Q8VNN2 whole entry): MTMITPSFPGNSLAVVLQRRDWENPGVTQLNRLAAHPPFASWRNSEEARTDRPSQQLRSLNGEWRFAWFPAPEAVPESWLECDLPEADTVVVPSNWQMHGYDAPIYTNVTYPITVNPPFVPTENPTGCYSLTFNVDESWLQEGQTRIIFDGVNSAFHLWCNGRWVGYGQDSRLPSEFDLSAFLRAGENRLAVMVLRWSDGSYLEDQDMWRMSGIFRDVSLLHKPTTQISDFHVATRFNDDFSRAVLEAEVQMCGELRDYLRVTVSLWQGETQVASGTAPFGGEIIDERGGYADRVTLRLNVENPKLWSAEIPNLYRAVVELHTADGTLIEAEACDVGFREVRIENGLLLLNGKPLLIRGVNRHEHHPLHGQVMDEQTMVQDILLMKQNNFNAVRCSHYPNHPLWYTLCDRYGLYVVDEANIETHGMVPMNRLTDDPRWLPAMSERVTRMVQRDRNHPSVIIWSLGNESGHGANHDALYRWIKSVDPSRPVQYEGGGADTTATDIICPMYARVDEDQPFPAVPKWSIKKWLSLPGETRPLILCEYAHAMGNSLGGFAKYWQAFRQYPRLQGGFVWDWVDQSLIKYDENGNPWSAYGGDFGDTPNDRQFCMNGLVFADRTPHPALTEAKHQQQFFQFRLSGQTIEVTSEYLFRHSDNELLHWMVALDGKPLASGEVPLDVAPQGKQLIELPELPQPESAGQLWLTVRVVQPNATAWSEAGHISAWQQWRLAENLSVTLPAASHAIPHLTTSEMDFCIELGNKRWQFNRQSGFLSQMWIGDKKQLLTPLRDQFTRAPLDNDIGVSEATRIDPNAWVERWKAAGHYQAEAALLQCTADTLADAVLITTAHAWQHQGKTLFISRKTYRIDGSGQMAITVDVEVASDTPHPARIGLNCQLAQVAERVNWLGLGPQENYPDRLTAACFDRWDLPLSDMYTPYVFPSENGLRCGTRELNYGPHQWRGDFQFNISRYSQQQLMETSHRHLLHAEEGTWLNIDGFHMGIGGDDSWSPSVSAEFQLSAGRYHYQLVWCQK

[3] = molecular target: T2, Histone-lysine N-methyltransferase NSD2 (Homo sapiens, UniProt O96028); type: biochemical
T2 sequence (O96028 whole entry): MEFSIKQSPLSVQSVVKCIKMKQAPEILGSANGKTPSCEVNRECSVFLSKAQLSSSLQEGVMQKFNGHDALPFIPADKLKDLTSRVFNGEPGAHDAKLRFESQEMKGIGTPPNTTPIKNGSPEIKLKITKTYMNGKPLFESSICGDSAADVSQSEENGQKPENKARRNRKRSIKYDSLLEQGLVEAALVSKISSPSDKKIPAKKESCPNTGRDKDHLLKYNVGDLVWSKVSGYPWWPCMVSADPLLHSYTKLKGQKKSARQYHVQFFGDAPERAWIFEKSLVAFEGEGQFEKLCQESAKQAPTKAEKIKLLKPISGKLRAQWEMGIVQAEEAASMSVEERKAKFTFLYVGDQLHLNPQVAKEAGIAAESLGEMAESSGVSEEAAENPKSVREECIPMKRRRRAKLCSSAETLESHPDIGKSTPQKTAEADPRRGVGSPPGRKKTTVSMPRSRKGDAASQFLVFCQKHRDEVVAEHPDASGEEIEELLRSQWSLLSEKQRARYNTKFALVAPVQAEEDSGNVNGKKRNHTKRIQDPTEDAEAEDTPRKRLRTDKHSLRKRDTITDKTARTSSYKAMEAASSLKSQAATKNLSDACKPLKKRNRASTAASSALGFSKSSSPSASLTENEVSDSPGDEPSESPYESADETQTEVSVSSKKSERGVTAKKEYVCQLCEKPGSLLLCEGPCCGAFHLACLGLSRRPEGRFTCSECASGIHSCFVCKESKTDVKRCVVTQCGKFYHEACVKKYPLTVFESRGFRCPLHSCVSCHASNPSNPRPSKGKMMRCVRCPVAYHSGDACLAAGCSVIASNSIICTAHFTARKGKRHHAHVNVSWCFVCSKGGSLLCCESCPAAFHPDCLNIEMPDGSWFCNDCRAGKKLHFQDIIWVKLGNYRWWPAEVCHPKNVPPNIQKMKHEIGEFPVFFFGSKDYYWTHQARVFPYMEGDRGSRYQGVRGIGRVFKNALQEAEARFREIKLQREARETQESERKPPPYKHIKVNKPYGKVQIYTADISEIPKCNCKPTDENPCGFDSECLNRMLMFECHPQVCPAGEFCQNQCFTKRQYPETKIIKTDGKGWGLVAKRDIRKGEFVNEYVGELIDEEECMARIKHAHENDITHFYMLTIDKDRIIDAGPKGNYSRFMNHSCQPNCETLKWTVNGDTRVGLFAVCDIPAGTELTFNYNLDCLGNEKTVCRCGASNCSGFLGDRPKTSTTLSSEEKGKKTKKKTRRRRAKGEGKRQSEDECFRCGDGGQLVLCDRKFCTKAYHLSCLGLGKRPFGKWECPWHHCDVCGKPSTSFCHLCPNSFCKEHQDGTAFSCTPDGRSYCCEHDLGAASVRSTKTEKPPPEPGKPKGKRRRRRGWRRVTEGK

[4] = molecular target: Heat shock protein HSP 90-alpha (Homo sapiens, UniProt P07900); type: functional, organism-based
CHO = assay: cytotoxicity in TLR9-MyD88 CHO cells, dose response, cytotoxicity control for TLR9-MyD88 binding inhibitor project, cell-based, luminescence (AID 588339); type: functional, hamster; conditions: Cricetulus griseus;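 note: CHO cells stably coexpressing TLR9 and MyD88 fusions from primary screen; compound exposure lasted 48 hours before viability readout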
[5] = molecular target: T3, Polyadenylate-binding protein 1 (Homo sapiens, UniProt P11940); assay: PABP1 MLLE–PAM2 interaction inhibitors, dose response, miRNA deadenylation inhibitor project, biochemical, fluorescence polarization, Cy5-PAM2 peptide, secondary (AID 602260); type: functional; conditions: read-out: IC50_Mean
T3 sequence (P11940 whole entry): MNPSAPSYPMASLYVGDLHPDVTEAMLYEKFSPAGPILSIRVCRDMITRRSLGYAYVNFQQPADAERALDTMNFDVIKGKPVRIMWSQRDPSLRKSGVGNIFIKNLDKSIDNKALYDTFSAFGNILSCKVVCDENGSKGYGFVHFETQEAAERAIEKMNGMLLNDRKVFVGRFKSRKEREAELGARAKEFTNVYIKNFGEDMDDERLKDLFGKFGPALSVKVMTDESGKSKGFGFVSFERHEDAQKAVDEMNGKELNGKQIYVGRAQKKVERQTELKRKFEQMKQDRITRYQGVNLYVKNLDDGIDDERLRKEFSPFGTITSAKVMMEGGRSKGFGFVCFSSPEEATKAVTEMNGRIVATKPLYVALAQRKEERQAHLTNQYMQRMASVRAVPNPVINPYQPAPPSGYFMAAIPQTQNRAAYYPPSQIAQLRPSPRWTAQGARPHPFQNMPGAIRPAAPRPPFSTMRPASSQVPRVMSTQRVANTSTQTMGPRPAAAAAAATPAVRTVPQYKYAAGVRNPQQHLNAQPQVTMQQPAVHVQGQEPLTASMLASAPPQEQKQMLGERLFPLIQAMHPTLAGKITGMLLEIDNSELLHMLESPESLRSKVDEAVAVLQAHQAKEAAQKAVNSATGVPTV

[6] = molecular target: Glucose-6-phosphate 1-dehydrogenase (Homo sapiens, UniProt P11413); assay: human G6PD enzyme inhibitors, dose response, selectivity assay for P. falciparum G6PD inhibitor project, biochemical, fluorescence (AID 504792); type: functional
Chain of Glucose-6-phosphate 1-dehydrogenase (P11413 whole entry): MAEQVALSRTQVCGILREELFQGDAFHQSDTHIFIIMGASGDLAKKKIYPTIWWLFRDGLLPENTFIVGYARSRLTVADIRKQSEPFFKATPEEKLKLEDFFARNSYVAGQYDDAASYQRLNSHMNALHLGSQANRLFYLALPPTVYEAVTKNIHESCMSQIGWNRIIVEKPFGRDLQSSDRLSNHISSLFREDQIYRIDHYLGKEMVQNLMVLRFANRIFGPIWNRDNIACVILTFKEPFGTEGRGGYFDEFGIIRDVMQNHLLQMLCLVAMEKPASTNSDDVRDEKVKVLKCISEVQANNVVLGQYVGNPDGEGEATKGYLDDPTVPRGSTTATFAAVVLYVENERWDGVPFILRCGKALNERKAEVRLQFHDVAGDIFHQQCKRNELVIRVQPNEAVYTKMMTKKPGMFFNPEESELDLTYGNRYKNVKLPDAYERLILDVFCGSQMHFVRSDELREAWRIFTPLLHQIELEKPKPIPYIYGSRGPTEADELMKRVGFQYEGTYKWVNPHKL

Genome polyprotein = Genome polyprotein (dengue virus type 2, UniProt P29990); assay: Dengue-2 NS5 methyltransferase inhibitors, primary screen, biochemical, confirmation dose response (AID 588689); type: functional
Chain of Genome polyprotein (P29990 2492-3391 limits assumed): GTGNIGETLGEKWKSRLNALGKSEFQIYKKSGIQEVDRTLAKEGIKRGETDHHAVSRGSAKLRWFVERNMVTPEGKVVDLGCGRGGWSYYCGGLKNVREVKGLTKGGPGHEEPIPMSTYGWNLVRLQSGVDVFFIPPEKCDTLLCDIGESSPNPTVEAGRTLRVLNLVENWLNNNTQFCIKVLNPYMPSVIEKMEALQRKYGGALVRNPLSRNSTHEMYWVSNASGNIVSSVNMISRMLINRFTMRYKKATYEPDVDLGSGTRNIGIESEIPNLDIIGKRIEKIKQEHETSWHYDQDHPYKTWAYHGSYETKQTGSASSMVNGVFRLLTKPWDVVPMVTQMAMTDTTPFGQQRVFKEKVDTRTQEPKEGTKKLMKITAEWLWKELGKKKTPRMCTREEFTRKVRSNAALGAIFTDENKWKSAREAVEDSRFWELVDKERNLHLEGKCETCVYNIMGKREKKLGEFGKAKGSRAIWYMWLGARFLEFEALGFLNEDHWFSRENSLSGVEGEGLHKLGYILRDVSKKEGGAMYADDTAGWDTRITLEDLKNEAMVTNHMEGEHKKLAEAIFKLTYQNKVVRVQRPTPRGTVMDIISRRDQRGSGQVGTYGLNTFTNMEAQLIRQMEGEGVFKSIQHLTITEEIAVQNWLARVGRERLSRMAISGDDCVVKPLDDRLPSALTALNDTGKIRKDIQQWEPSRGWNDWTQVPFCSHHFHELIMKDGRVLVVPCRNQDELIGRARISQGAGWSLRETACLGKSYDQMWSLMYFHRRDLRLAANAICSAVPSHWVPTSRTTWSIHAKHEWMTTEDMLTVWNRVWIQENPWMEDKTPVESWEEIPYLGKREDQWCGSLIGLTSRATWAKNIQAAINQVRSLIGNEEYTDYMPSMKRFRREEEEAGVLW

[7] = molecular target: T3, Polyadenylate-binding protein 1; assay: PABP1 MLLE–PAM2 binding inhibitor potency, dose response, biochemical, fluorescence polarization, FITC-PAM2 peptide (AID 602259); type: functional; conditions: read-out: IC50_Mean
Hexokinase HKDC1 = molecular target: T4, Hexokinase HKDC1 (Homo sapiens, UniProt Q2TB90); assay: HKDC1 hexokinase inhibitors, dose response, biochemical, W721R variant (AID 504729); type: functional
T4 sequence (Q2TB90 whole entry): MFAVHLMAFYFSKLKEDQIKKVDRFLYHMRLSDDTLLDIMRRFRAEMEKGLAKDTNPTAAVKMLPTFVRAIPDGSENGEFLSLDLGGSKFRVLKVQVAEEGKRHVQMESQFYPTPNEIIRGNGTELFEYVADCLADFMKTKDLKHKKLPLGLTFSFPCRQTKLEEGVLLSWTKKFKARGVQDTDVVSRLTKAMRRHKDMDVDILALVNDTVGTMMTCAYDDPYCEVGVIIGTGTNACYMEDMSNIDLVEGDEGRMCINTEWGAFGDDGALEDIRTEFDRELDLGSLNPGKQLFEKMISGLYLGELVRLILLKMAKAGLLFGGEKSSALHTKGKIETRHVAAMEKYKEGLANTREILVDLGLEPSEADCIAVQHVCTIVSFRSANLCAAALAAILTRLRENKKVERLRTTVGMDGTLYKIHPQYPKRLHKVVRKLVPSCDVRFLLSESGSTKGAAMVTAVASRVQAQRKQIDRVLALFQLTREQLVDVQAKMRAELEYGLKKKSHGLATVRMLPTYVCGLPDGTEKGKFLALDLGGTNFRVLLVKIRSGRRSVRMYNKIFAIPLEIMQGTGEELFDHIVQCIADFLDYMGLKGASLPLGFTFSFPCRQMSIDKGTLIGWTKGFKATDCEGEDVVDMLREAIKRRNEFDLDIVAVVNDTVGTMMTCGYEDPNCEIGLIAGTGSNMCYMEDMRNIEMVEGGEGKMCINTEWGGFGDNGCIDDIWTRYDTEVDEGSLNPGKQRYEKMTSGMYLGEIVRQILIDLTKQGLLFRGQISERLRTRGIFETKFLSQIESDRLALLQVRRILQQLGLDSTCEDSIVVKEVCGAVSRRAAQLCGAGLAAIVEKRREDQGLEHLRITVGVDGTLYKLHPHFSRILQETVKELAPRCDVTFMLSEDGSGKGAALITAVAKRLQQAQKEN

Beta Lactamase = Beta Lactamase (Pseudomonas aeruginosa, UniProt Q932Y6); assay: beta-lactamase reporter inhibitor potency, dose response, artefact control for TLR9-MyD88 binding inhibitor project, BLA reporter cells, FRET fluorescence (AID 588341); type: cell-based;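 note: cell based assay in CHO-K1 cells stably expressing beta-lactamase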
Chain of Beta Lactamase (Q932Y6 whole entry): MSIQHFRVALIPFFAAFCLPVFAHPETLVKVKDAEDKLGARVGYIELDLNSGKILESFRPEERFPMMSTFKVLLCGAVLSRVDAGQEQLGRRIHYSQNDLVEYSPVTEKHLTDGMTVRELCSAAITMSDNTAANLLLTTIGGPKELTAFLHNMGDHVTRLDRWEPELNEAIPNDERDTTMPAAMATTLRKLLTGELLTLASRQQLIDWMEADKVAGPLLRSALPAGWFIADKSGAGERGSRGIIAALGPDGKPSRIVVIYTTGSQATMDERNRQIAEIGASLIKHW

[8] = molecular target: T5, Voltage-gated N-type calcium channel alpha-1B subunit/Amyloid beta A4 precursor protein-binding family A member 1 (Homo sapiens, UniProt Q00975+Q02410); assay: disruptors of Mint-PDZ/N-type channel peptide interaction – biochemical, HTRF, set 2, SAR follow-up (AID 434980); type: functional
[9] = molecular target: T5, Voltage-gated N-type calcium channel alpha-1B subunit/Amyloid beta A4 precursor protein-binding family A member 1; assay: disruptors of Mint-PDZ/N-type channel peptide interaction – biochemical, HTRF, SAR follow-up (AID 2489); type: functional
Coagulation factor XII = molecular target: T6, Coagulation factor XII (Homo sapiens, UniProt P00748); assay: FXIIa inhibitor potency, concentration-response, biochemical (AID 716); type: functional
T6 sequence (P00748 whole entry): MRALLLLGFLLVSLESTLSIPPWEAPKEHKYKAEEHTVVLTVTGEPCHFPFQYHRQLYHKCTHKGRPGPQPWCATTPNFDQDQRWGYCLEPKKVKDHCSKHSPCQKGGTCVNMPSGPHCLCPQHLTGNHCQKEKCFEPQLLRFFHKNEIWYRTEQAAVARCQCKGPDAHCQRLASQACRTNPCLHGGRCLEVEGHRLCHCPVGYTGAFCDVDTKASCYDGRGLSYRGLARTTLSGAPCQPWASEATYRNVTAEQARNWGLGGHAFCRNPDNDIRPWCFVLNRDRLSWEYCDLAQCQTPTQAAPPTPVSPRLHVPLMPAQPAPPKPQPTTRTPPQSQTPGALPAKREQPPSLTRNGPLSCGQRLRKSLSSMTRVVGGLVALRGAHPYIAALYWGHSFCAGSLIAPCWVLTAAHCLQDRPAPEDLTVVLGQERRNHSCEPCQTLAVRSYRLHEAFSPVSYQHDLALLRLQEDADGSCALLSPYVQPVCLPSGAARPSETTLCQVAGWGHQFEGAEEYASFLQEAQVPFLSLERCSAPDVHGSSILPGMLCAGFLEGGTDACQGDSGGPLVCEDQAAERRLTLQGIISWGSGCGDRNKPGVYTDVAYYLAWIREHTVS

Protein Rev = Protein Rev (Human immunodeficiency virus type 1 group M subtype B (isolate HXB2)(HIV-1), UniProt P04618); assay: inhibitors of Rev binding to RRE RNA, dose response, biochemical, fluorescence polarization, HIV-1 (AID 434976); parameters: species or system Human immunodeficiency virus 1
Chain of Protein Rev (P04618 whole entry, the tested form may be a part): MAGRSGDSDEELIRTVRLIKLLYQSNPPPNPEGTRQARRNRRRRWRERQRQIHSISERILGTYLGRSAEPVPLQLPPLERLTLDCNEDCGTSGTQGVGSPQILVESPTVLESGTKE

[10] = molecular target: T7, RNA-binding protein pos-1 (Caenorhabditis elegans, UniProt G5EF15); assay: inhibitors of POS-1/mex-3 RNA binding, dose response, biochemical, fluorescence polarization (AID 1964);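 note: purified POS-1 fused to maltose binding protein made in E. coli; potency of compounds blocking POS-1 binding to fluorescent RNA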
T7 sequence (G5EF15 whole entry): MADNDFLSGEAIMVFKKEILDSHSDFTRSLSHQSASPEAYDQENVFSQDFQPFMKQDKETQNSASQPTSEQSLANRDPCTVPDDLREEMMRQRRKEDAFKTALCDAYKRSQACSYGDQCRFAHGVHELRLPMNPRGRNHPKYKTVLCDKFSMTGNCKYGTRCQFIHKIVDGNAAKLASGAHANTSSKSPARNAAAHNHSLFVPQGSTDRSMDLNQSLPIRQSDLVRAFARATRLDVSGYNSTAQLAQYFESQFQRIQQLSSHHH

[11] = molecular target: Female germline-specific tumor suppressor gld-1 (Caenorhabditis elegans, UniProt Q17339); assay: inhibitors of GLD-1 binding to TGE RNA, dose response, biochemical, fluorescence polarization, C. elegans (AID 2802);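 note: fluorescence polarization of labeled TGE RNA bound by purified gld-1 protein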
Chain of Female germline-specific tumor suppressor gld-1 (Q17339 whole entry): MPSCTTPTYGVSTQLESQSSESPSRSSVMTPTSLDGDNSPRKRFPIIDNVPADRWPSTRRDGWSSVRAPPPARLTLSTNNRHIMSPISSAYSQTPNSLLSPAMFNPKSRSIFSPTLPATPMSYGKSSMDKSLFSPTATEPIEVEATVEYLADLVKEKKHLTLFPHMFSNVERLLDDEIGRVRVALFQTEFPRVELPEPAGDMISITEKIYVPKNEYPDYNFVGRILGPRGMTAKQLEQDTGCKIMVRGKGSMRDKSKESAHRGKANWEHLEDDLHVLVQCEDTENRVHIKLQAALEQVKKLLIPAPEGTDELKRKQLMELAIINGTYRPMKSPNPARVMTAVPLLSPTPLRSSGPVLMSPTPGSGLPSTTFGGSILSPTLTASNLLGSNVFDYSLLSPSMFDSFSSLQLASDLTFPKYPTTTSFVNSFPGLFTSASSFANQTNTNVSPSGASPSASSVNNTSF

[12] = molecular target: T8, Zinc finger protein mex-5 (Caenorhabditis elegans, UniProt Q9XUB2); assay: MEX-5/TCR-2 RNA interaction inhibitors, dose response, biochemical, C. elegans, fluorescence polarization (AID 1960)
T8 sequence (Q9XUB2 whole entry): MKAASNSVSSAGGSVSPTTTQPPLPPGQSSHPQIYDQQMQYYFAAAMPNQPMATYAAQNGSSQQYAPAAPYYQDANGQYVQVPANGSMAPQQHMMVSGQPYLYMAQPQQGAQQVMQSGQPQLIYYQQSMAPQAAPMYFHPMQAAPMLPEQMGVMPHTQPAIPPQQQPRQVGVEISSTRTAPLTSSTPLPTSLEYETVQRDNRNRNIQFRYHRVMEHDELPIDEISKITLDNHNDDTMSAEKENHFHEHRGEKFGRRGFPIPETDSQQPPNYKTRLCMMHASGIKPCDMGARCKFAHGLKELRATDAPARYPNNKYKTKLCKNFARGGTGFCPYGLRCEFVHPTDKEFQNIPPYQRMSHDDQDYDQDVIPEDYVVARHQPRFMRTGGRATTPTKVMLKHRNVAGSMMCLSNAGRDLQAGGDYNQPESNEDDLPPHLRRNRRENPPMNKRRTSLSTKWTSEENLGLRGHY

Chain of Potassium voltage-gated channel subfamily KQT member 2 (O88943 whole entry): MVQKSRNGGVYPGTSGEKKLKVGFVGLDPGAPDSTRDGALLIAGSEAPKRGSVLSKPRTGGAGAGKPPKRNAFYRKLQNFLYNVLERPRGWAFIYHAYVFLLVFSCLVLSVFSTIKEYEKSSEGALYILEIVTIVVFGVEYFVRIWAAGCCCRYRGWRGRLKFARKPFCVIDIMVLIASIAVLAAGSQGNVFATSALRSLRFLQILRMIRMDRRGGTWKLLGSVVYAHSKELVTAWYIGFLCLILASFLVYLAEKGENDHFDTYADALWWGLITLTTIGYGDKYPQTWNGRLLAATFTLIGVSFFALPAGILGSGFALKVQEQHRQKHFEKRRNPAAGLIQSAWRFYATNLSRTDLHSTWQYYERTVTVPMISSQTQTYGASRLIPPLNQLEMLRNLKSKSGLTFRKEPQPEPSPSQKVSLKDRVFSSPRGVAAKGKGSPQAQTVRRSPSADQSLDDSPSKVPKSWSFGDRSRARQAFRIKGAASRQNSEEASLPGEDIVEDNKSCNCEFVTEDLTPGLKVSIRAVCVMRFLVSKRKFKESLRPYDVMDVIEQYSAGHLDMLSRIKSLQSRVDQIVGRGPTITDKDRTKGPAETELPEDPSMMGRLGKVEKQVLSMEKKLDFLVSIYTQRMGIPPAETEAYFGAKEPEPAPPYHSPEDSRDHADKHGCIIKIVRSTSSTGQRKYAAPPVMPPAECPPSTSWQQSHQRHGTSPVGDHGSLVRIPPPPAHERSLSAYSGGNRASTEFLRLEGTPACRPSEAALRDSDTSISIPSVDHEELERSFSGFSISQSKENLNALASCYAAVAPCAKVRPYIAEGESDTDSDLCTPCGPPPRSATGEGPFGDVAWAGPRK

SMILES: O=C(Nc1cccnc1)Nc1cccc(Cl)c1
- EC50 [1]: 18.3 µM (active)

SMILES: O=C1C(Cl)=C(NCCc2ccccc2)C(=O)c2ccccc21
- IC50 [2]: 218 µM (active)
- IC50 (Beta-galactosidase): > 66.6 µM (inactive)
- AC50 [3]: 3.78 µM (active)
- AC50 [4]: 3.38 µM (active)
- IC50 (CHO): 1.58 µM (active)
- IC50 [5]: > 66 µM (inactive)
- IC50 [6]: 19.7 µM (active)
- IC50 (Genome polyprotein): 9.15 µM (active)
- IC50 [7]: > 66 µM (inactive)
- IC50 (Hexokinase HKDC1): 7.92 µM (active)
- IC50 (Beta Lactamase): 17.7 µM (inactive)

SMILES: COC(=O)c1cc(N2C(=O)C3C(C2=O)C2(C)C=CC3(C)O2)ccc1Cl (stereo not drawn)
- IC50 [8]: > 56.8 µM (inactive)
- IC50 [9]: > 56.8 µM (inactive)

SMILES: O=C(NCc1ccc(Cl)cc1Cl)Nc1ccc(Cl)nc1
- EC50 [1]: 3.74 µM (active)

SMILES: COc1ccc(CNc2nc(NCc3ccc(OC)cc3)n(S(C)(=O)=O)n2)cc1
- IC50 (Coagulation factor XII): > 50 µM (inactive)

SMILES: O=C1c2ccccc2C(=O)c2c1cccc2N(CCO)CCO
- IC50 (Protein Rev): 8.44 µM (active)
- IC50 [5]: > 66 µM (inactive)
- EC50 [10]: 19.6 µM (active)
- IC50 (Genome polyprotein): 28.8 µM (active)
- IC50 [11]: 5.51 µM (active)
- IC50 [7]: 47.7 µM (inactive)
- EC50 [12]: 17 µM (active)
